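These data come from cells grown in 96-well plates and exposed to compound for 48 hours at five concentrations. At the GI50, growth is halved. TGI is the concentration that stops growth completely.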
Experiments:
Assay in all cases: inhibition of tumour cell growth, NCI panel, 48 h
NCI-H23 lung = tested on: NCI-H23 lung
A498 renal = tested on: A498 renal
COLO 205 colon = tested on: COLO 205 colon
HCC-2998 colon = tested on: HCC-2998 colon
MDA-MB-231 breast = tested on: MDA-MB-231 breast
SF-539 CNS = tested on: SF-539 CNS
SNB-75 CNS = tested on: SNB-75 CNS
SW-620 colon = tested on: SW-620 colon
HS 578T breast = tested on: HS 578T breast
HCT-116 colon = tested on: HCT-116 colon
SR leukemia = tested on: SR leukemia
BT-549 breast = tested on: BT-549 breast
CAKI-1 renal = tested on: CAKI-1 renal
CCRF-CEM leukemia = tested on: CCRF-CEM leukemia
HCT-15 colon = tested on: HCT-15 colon
MALME-3M melanoma = tested on: MALME-3M melanoma
NCI-H226 lung = tested on: NCI-H226 lung
SF-295 CNS = tested on: SF-295 CNS
DU-145 prostate = tested on: DU-145 prostate
PC-3 prostate = tested on: PC-3 prostate
HL-60(TB) leukemia = tested on: HL-60(TB) leukemia
U251 CNS = tested on: U251 CNS
UACC-257 melanoma = tested on: UACC-257 melanoma
EKVX NSCLC = tested on: EKVX NSCLC
HOP-92 NSCLC = tested on: HOP-92 NSCLC
OVCAR-8 ovarian = tested on: OVCAR-8 ovarian
A549 NSCLC = tested on: A549 NSCLC
OVCAR-5 ovarian = tested on: OVCAR-5 ovarian
T-47D breast = tested on: T-47D breast
TK-10 renal = tested on: TK-10 renal
NCI-H460 lung = tested on: NCI-H460 lung
UACC-62 melanoma = tested on: UACC-62 melanoma
RPMI-8226 leukemia = tested on: RPMI-8226 leukemia
M14 melanoma = tested on: M14 melanoma
SK-MEL-5 melanoma = tested on: SK-MEL-5 melanoma
MOLT-4 leukemia = tested on: MOLT-4 leukemia
NCI-H522 lung = tested on: NCI-H522 lung
NCI/ADR-RES ovarian = tested on: NCI/ADR-RES ovarian
SNB-19 CNS = tested on: SNB-19 CNS
786-0 renal = tested on: 786-0 renal
SK-MEL-28 melanoma = tested on: SK-MEL-28 melanoma
HT29 colon = tested on: HT29 colon
HOP-62 NSCLC = tested on: HOP-62 NSCLC
K-562 leukemia = tested on: K-562 leukemia
SK-MEL-2 melanoma = tested on: SK-MEL-2 melanoma
SF-268 CNS = tested on: SF-268 CNS
SK-OV-3 ovarian = tested on: SK-OV-3 ovarian
ACHN renal = tested on: ACHN renal
OVCAR-4 ovarian = tested on: OVCAR-4 ovarian
RXF 393 renal = tested on: RXF 393 renal
KM12 colon = tested on: KM12 colon
SN12C renal = tested on: SN12C renal
LOX IMVI melanoma = tested on: LOX IMVI melanoma
UO-31 renal = tested on: UO-31 renal
MCF7 breast = tested on: MCF7 breast

COC(=O)c1cc(-c2ccc(OC)cc2)[nH]c1N/N=C/c1c(Cl)cccc1Cl
GI50 (NCI-H23 lung): 412 nM
TGI (NCI-H23 lung): 14000 nM
GI50 (A498 renal): 185 nM
TGI (A498 renal): 3430 nM
GI50 (COLO 205 colon): 846 nM
TGI (COLO 205 colon): 2930 nM
GI50 (HCC-2998 colon): 118 nM
TGI (HCC-2998 colon): 536 nM
GI50 (MDA-MB-231 breast): 462 nM
TGI (MDA-MB-231 breast): 3240 nM
GI50 (SF-539 CNS): 172 nM
TGI (SF-539 CNS): 553 nM
GI50 (SNB-75 CNS): 161 nM
TGI (SNB-75 CNS): 725 nM
GI50 (SW-620 colon): 260 nM
TGI (SW-620 colon): 97500 nM
GI50 (HS 578T breast): 190 nM
TGI (HS 578T breast): 2820 nM
GI50 (HCT-116 colon): 354 nM
TGI (HCT-116 colon): 2140 nM
GI50 (SR leukemia): 90.9 nM
TGI (SR leukemia): 1180 nM
GI50 (BT-549 breast): 177 nM
TGI (BT-549 breast): 2020 nM
GI50 (CAKI-1 renal): 351 nM
TGI (CAKI-1 renal): 15500 nM
GI50 (CCRF-CEM leukemia): 312 nM
TGI (CCRF-CEM leukemia): 3390 nM
GI50 (HCT-15 colon): 204 nM
TGI (HCT-15 colon): 1490 nM
GI50 (MALME-3M melanoma): 316 nM
GI50 (NCI-H226 lung): 574 nM
TGI (NCI-H226 lung): 28100 nM
GI50 (SF-295 CNS): 124 nM
TGI (SF-295 CNS): 1490 nM
GI50 (DU-145 prostate): 229 nM
TGI (DU-145 prostate): 831 nM
GI50 (PC-3 prostate): 261 nM
TGI (PC-3 prostate): 3780 nM
GI50 (HL-60(TB) leukemia): 235 nM
TGI (HL-60(TB) leukemia): 574 nM
GI50 (U251 CNS): 292 nM
TGI (U251 CNS): 1820 nM
GI50 (UACC-257 melanoma): 409 nM
TGI (UACC-257 melanoma): 9170 nM
GI50 (EKVX NSCLC): 224 nM
TGI (EKVX NSCLC): 3230 nM
GI50 (HOP-92 NSCLC): 206 nM
TGI (HOP-92 NSCLC): 2500 nM
GI50 (OVCAR-8 ovarian): 442 nM
TGI (OVCAR-8 ovarian): 5160 nM
GI50 (A549 NSCLC): 361 nM
TGI (A549 NSCLC): 4480 nM
GI50 (OVCAR-5 ovarian): 1490 nM
TGI (OVCAR-5 ovarian): 8370 nM
GI50 (T-47D breast): 505 nM
TGI (T-47D breast): > 31800 nM
GI50 (TK-10 renal): 568 nM
TGI (TK-10 renal): 13800 nM
GI50 (NCI-H460 lung): 201 nM
TGI (NCI-H460 lung): 992 nM
GI50 (UACC-62 melanoma): 205 nM
TGI (UACC-62 melanoma): 16800 nM
GI50 (RPMI-8226 leukemia): 187 nM
TGI (RPMI-8226 leukemia): 575 nM
GI50 (M14 melanoma): 196 nM
TGI (M14 melanoma): 1100 nM
GI50 (SK-MEL-5 melanoma): 198 nM
TGI (SK-MEL-5 melanoma): 3500 nM
GI50 (MOLT-4 leukemia): 415 nM
GI50 (NCI-H522 lung): 87.7 nM
TGI (NCI-H522 lung): 491 nM
GI50 (NCI/ADR-RES ovarian): 160 nM
TGI (NCI/ADR-RES ovarian): 5110 nM
GI50 (SNB-19 CNS): 358 nM
TGI (SNB-19 CNS): 11500 nM
GI50 (786-0 renal): 331 nM
TGI (786-0 renal): 4790 nM
GI50 (SK-MEL-28 melanoma): 387 nM
TGI (SK-MEL-28 melanoma): > 100000 nM
GI50 (HT29 colon): 255 nM
TGI (HT29 colon): 1260 nM
GI50 (HOP-62 NSCLC): 275 nM
TGI (HOP-62 NSCLC): 4710 nM
GI50 (K-562 leukemia): 144 nM
TGI (K-562 leukemia): 6650 nM
GI50 (SK-MEL-2 melanoma): 377 nM
TGI (SK-MEL-2 melanoma): 8200 nM
GI50 (SF-268 CNS): 203 nM
TGI (SF-268 CNS): 10400 nM
GI50 (SK-OV-3 ovarian): 188 nM
TGI (SK-OV-3 ovarian): 2190 nM
GI50 (ACHN renal): 316 nM
TGI (ACHN renal): 4420 nM
GI50 (OVCAR-4 ovarian): 659 nM
TGI (OVCAR-4 ovarian): > 53600 nM
GI50 (RXF 393 renal): 142 nM
TGI (RXF 393 renal): 332 nM
GI50 (KM12 colon): 141 nM
TGI (KM12 colon): 6750 nM
GI50 (SN12C renal): 507 nM
TGI (SN12C renal): 18700 nM
GI50 (LOX IMVI melanoma): 146 nM
TGI (LOX IMVI melanoma): 5420 nM
GI50 (UO-31 renal): 287 nM
TGI (UO-31 renal): 2550 nM
GI50 (MCF7 breast): 107 nM
TGI (MCF7 breast): 887 nM
